Source: the kinase profiling compilation of Christmann-Franck et al. (2016)

Columns and labels:
Test in all cases: KINOMEscan competition binding
Conditions in all cases: compound 10.0 µM
PDGFRA (human) = PDGFRA (human) (UniProt P16234)
MKNK2 (human) = MKNK2 (human) (UniProt Q9HBH9)
[1] = tested on: EGFR (human), P00533 [L858R]
MINK1 (human) = MINK1 (human) (UniProt Q8N4C8)
AAK1 (human) = AAK1 (human) (UniProt Q2M2I8)
SRPK1 (human) = SRPK1 (human) (UniProt Q96SB4)
HUNK (human) = HUNK (human) (UniProt P57058)
PKN2 (human) = PKN2 (human) (UniProt Q16513)
EPHA5 (human) = EPHA5 (human) (UniProt P54756)
MARK4 (human) = MARK4 (human) (UniProt Q96L34)
MAPK10 (human) = MAPK10 (human) (UniProt P53779)
ANKK1 (human) = ANKK1 (human) (UniProt Q8NFD2)
TESK1 (human) = TESK1 (human) (UniProt Q15569)
PRKD2 (human) = PRKD2 (human) (UniProt Q9BZL6)
AURKA (human) = AURKA (human) (UniProt O14965)
AURKB (human) = AURKB (human) (UniProt Q96GD4)
STK32C (human) = STK32C (human) (UniProt Q86UX6)
STK35 (human) = STK35 (human) (UniProt Q8TDR2)
STK16 (human) = STK16 (human) (UniProt O75716)
[2] = target: JAK2 JH1 catalytic (human) (UniProt O60674)
AURKC (human) = AURKC (human) (UniProt Q9UQB9)
PRKAA1 (human) = PRKAA1 (human) (UniProt Q13131)
[3] = tested on: FLT3 (human), P36888 [D835Y]
CaMK1 (human) = CaMK1 (human) (UniProt Q14012)
HCK (human) = HCK (human) (UniProt P08631)
MAPK11 (human) = MAPK11 (human) (UniProt Q15759)
RIOK1 (human) = RIOK1 (human) (UniProt Q9BRS2)
CSNK2A2 (human) = CSNK2A2 (human) (UniProt P19784)
NEK1 (human) = NEK1 (human) (UniProt Q96PY6)
GSK3B (human) = GSK3B (human) (UniProt P49841)
SBK1 (human) = SBK1 (human) (UniProt Q52WX2)
CSF1R (human) = CSF1R (human) (UniProt P07333)
MAP3K12 (human) = MAP3K12 (human) (UniProt Q12852)
RPS6KA1 KD2 (human) = RPS6KA1 KD2 (human) (UniProt Q15418)
RPS6KA4 KD2 (human) = RPS6KA4 KD2 (human) (UniProt O75676)
MAP3K15 (human) = MAP3K15 (human) (UniProt Q6ZN16)
CDK18 (human) = CDK18 (human) (UniProt Q07002)
STK33 (human) = STK33 (human) (UniProt Q9BYT3)
SNRK (human) = SNRK (human) (UniProt Q9NRH2)
MAP2K5 (human) = MAP2K5 (human) (UniProt Q13163)

STK33 (human), sequence (Q9BYT3 whole entry, looked up): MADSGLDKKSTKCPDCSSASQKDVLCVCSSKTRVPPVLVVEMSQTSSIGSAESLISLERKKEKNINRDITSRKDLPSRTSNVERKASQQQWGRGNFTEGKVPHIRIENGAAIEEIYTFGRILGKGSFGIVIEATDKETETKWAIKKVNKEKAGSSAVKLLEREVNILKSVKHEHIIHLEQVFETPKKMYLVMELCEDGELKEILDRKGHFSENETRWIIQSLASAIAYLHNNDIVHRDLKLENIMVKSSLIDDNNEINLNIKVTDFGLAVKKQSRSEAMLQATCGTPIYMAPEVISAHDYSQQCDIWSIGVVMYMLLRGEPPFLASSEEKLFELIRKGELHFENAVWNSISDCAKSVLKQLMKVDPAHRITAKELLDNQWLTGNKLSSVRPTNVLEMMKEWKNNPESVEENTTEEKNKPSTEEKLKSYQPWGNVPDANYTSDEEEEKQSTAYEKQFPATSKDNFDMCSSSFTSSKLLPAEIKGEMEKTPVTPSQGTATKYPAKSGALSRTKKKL
MKNK2 (human), sequence (Q9HBH9 whole entry, looked up): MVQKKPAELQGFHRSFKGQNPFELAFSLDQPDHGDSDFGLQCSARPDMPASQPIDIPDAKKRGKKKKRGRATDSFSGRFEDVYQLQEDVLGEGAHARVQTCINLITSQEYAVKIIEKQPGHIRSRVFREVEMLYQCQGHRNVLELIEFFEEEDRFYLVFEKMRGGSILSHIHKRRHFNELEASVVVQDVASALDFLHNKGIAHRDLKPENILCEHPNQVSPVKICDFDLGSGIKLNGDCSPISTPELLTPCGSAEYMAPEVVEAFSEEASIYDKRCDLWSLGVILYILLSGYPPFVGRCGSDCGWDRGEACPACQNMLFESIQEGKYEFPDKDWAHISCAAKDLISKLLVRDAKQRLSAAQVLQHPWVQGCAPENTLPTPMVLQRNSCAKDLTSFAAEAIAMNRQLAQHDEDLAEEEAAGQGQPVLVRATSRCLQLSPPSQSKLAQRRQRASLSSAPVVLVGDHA
CDK18 (human), sequence (Q07002 whole entry, looked up): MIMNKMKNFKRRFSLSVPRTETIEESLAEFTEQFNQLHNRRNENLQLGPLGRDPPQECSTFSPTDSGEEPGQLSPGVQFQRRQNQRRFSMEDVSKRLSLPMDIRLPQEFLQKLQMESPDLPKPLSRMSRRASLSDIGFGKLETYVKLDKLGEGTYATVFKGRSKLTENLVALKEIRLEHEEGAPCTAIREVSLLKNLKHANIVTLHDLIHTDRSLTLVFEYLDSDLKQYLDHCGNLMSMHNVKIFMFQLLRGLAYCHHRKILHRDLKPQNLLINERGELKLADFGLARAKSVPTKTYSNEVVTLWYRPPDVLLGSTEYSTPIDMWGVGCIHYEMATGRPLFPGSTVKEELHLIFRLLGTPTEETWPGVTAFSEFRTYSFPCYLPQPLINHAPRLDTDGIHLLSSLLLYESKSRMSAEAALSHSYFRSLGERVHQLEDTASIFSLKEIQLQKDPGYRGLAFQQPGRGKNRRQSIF
RIOK1 (human), sequence (Q9BRS2 whole entry, looked up): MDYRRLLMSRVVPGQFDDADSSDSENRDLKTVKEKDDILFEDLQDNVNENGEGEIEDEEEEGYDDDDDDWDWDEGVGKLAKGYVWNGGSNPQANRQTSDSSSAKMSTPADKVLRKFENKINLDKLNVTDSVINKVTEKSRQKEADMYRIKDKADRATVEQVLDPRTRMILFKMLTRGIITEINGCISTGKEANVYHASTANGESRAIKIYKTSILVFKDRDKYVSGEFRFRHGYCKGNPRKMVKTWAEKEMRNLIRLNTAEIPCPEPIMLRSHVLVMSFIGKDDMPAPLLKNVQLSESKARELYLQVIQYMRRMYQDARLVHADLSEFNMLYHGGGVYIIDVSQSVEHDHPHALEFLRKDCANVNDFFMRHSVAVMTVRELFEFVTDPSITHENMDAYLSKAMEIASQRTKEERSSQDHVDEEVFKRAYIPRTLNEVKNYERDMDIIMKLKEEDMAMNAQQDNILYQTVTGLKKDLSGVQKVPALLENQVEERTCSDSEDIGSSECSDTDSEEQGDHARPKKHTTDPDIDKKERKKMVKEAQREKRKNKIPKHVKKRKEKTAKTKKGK
AURKA (human), sequence (O14965 whole entry, looked up): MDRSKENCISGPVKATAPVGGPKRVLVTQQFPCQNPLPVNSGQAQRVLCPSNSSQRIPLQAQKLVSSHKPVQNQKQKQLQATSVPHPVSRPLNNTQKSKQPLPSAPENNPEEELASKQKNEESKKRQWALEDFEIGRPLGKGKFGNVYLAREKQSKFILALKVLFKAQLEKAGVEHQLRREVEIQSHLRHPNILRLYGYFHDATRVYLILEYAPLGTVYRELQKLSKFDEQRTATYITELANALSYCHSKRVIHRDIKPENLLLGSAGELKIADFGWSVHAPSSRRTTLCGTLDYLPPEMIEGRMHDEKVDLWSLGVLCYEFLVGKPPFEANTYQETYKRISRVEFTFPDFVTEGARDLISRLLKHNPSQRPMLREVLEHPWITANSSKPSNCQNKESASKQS
AAK1 (human), sequence (Q2M2I8 whole entry, looked up): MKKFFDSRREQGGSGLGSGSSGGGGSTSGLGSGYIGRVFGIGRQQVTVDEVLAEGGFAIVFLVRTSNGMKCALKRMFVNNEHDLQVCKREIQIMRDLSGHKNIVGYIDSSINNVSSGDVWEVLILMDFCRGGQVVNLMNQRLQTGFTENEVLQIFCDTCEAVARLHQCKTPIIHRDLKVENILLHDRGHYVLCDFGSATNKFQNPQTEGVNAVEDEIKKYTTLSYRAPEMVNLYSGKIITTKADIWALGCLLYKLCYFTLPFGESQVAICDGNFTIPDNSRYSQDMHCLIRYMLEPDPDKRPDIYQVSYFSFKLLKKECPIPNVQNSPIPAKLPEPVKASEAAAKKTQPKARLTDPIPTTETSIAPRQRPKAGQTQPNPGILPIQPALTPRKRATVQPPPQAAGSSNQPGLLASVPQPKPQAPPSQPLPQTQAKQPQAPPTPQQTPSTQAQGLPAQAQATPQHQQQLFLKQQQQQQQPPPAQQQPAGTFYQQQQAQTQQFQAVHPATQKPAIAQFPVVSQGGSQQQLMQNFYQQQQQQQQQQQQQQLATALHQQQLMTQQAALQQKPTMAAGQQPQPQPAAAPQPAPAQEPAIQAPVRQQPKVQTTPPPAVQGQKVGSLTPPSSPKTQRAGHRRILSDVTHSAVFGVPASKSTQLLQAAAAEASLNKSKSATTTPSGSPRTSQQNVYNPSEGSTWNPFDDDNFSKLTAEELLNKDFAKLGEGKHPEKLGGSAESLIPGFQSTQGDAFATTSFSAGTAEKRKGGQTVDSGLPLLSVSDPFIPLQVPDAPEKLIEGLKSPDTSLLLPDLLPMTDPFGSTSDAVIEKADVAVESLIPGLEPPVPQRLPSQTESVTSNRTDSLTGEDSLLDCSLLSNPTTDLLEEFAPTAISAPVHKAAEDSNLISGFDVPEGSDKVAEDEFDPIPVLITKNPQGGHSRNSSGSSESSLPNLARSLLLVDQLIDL
MAP3K15 (human), sequence (Q6ZN16 whole entry, looked up): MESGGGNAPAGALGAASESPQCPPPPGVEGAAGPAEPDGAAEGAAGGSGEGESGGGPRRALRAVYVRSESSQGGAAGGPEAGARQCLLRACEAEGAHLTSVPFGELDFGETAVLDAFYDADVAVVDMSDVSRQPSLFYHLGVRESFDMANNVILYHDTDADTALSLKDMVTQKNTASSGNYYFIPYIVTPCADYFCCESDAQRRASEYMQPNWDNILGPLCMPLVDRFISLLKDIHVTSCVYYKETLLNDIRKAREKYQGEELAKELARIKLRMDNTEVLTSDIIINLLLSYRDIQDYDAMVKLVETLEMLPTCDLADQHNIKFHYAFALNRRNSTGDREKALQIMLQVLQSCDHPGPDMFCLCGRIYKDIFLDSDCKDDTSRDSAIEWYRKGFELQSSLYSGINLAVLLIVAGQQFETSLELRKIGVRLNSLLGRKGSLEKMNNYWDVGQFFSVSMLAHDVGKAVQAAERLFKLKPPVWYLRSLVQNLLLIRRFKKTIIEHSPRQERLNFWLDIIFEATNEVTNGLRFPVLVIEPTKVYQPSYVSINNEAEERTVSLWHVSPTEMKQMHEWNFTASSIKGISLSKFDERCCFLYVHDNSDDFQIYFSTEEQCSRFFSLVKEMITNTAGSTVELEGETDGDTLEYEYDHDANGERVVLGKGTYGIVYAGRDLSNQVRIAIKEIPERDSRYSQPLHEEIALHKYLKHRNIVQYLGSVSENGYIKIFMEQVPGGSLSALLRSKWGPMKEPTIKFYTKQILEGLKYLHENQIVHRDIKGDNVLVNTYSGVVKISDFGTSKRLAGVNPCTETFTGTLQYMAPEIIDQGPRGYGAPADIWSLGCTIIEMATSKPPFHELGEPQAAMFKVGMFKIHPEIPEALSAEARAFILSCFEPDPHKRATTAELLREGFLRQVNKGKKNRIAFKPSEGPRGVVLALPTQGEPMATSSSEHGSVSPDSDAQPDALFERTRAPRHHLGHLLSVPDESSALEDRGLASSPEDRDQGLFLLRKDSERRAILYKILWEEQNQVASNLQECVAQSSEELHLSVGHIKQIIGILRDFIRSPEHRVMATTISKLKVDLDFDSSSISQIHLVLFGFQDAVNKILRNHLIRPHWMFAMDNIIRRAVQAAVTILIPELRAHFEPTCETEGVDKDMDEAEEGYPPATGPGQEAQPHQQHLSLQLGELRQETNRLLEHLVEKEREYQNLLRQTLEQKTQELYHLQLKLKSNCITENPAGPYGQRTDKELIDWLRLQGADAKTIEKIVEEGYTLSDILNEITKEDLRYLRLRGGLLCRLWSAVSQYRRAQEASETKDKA
AURKC (human), sequence (Q9UQB9 whole entry, looked up): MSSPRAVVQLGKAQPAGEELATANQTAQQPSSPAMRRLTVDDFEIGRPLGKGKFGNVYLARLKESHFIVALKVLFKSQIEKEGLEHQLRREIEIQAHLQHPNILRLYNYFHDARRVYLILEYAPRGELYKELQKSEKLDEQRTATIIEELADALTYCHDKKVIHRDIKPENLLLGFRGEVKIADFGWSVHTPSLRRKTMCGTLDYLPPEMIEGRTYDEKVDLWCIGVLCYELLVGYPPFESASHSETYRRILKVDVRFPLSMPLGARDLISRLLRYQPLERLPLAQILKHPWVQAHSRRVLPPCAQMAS

Row | Structure (SMILES) | kinase still bound, per cent of control (MKNK2 (human)) [%] | kinase still bound, per cent of control (MINK1 (human)) [%] | kinase still bound, per cent of control (AAK1 (human)) [%] | kinase still bound, per cent of control (HUNK (human)) [%] | kinase still bound, per cent of control (PKN2 (human)) [%] | kinase still bound, per cent of control (EPHA5 (human)) [%] | kinase still bound, per cent of control (MARK4 (human)) [%] | kinase still bound, per cent of control (MAPK10 (human)) [%] | kinase still bound, per cent of control (ANKK1 (human)) [%] | kinase still bound, per cent of control (TESK1 (human)) [%] | kinase still bound, per cent of control (PRKD2 (human)) [%] | kinase still bound, per cent of control (AURKA (human)) [%] | kinase still bound, per cent of control (AURKB (human)) [%] | kinase still bound, per cent of control (STK32C (human)) [%] | kinase still bound, per cent of control (STK35 (human)) [%] | kinase still bound, per cent of control (STK16 (human)) [%] | kinase still bound, per cent of control [2] [%] | kinase still bound, per cent of control (AURKC (human)) [%] | kinase still bound, per cent of control (PRKAA1 (human)) [%] | kinase still bound, per cent of control [3] [%] | further results
1 | Cc1cn(-c2cc(C(=O)Nc3ccc(C)c(NC(=O)c4ccno4)c3)cc(C(F)(F)F)c2)cn1 | 100 | 100 | 100 | 100 | 100 | 17 | 100 | 100 | 100 | 100 | 100 | 100 | 100 | 100 | 100 | 100 | 100 | 100 | 100 | 100 | kinase still bound, per cent of control (PDGFRA (human)): 1.2%; kinase still bound, per cent of control [1]: 100%; kinase still bound, per cent of control (SRPK1 (human)): 100%; kinase still bound, per cent of control (CaMK1 (human)): 100%; kinase still bound, per cent of control (HCK (human)): 1.4%; kinase still bound, per cent of control (MAPK11 (human)): 0%; kinase still bound, per cent of control (RIOK1 (human)): 100%; kinase still bound, per cent of control (CSNK2A2 (human)): 100%; kinase still bound, per cent of control (NEK1 (human)): 100%; kinase still bound, per cent of control (GSK3B (human)): 100%; kinase still bound, per cent of control (SBK1 (human)): 100%; kinase still bound, per cent of control (CSF1R (human)): 0.2%; kinase still bound, per cent of control (MAP3K12 (human)): 100%; kinase still bound, per cent of control (RPS6KA1 KD2 (human)): 100%; kinase still bound, per cent of control (RPS6KA4 KD2 (human)): 100%; kinase still bound, per cent of control (MAP3K15 (human)): 100%; kinase still bound, per cent of control (CDK18 (human)): 100%; kinase still bound, per cent of control (STK33 (human)): 100%
2 | CCOc1cc(N2CCC(O)CC2)ccc1Nc1ncc2c(n1)N(C)c1ccccc1C(=O)N2C | 100 | 100 | 100 | 100 | 100 | 100 | 100 | 100 | 100 | 100 | 100 | 100 | 100 | 100 | 100 | 100 | 100 | 100 | 100 | 100 | kinase still bound, per cent of control (PDGFRA (human)): 100%; kinase still bound, per cent of control [1]: 100%; kinase still bound, per cent of control (SRPK1 (human)): 100%; kinase still bound, per cent of control (CaMK1 (human)): 100%; kinase still bound, per cent of control (HCK (human)): 100%; kinase still bound, per cent of control (MAPK11 (human)): 100%; kinase still bound, per cent of control (RIOK1 (human)): 100%; kinase still bound, per cent of control (CSNK2A2 (human)): 100%; kinase still bound, per cent of control (NEK1 (human)): 100%; kinase still bound, per cent of control (GSK3B (human)): 100%; kinase still bound, per cent of control (SBK1 (human)): 100%; kinase still bound, per cent of control (CSF1R (human)): 100%; kinase still bound, per cent of control (MAP3K12 (human)): 100%; kinase still bound, per cent of control (RPS6KA1 KD2 (human)): 28%; kinase still bound, per cent of control (RPS6KA4 KD2 (human)): 100%; kinase still bound, per cent of control (MAP3K15 (human)): 100%; kinase still bound, per cent of control (CDK18 (human)): 100%; kinase still bound, per cent of control (STK33 (human)): 100%
3 | CC(=O)c1c(C)c2cnc(Nc3ccc(N4CCNCC4)cn3)nc2n(C2CCCC2)c1=O | 20 | 7.6 | 11 | 77 | 48 | 98 | 63 | 0.35 | 79 | 99 | 0.7 | 83 | 48 | 94 | 66 | 3.4 | 0.65 | 96 | 22 | 1.6 | kinase still bound, per cent of control (SNRK (human)): 94%; kinase still bound, per cent of control (MAP2K5 (human)): 62%; kinase still bound, per cent of control (CaMK1 (human)): 35%; kinase still bound, per cent of control (MAPK11 (human)): 96%; kinase still bound, per cent of control (RIOK1 (human)): 38%; kinase still bound, per cent of control (CSNK2A2 (human)): 0.65%; kinase still bound, per cent of control (NEK1 (human)): 61%; kinase still bound, per cent of control (SBK1 (human)): 36%; kinase still bound, per cent of control (CSF1R (human)): 50%; kinase still bound, per cent of control (MAP3K12 (human)): 47%; kinase still bound, per cent of control (RPS6KA1 KD2 (human)): 38%; kinase still bound, per cent of control (RPS6KA4 KD2 (human)): 3.2%; kinase still bound, per cent of control (MAP3K15 (human)): 11%; kinase still bound, per cent of control (CDK18 (human)): 20%; kinase still bound, per cent of control (STK33 (human)): 24%
